Square brackets hold non-standard residues; d marks the D form. Peptide text beside a SMILES is read from it. Arg(Me) = CNC(=N)NCCC[C@H](N)C(=O)O; d3Pal = N[C@H](Cc1cccnc1)C(=O)O; d4Pal = N[C@H](Cc1ccncc1)C(=O)O; azaGly = NNC(=O)O
Legend:
Format in all cases: functional, Homo sapiens
Set-up in all cases: dose or concentration left out as unconfirmed
Colon cancer organoid [1] = assay: Optimized Dual-Glo assay to identify co-culture induced drug vulnerabilities using donated chemical probes and chemogenomics kinase set in O06 CRC organoid and F06 CAF mono and co-culture. […] Cell viability is reported both mono and co-culture models.
Colon cancer organoid [2] = assay: Optimized Dual-Glo assay to identify co-culture induced drug vulnerabilities using donated chemical probes and chemogenomics kinase set in O14 CRC organoid and F14 CAF mono and co-culture. […] Cell viability is reported both mono and co-culture models.
Colon cancer organoid [3] = assay: Optimized Dual-Glo assay to identify co-culture induced drug vulnerabilities using donated chemical probes and chemogenomics kinase set in O20 CRC organoid and F20 CAF mono and co-culture. […] Cell viability is reported both mono and co-culture models.
[4] = Culture type Co-Culture, Transduced with Lucferase2-P2A-EGFP lentivirus
[5] = Culture type Co-Culture, Transduced with Renilla-dsRed lentivirus
[6] = Culture type Mono-Culture, Transduced with Lucferase2-P2A-EGFP lentivirus
[7] = Culture type Mono-Culture, Transduced with Renilla-dsRed lentivirus

Compound	Cell Viability (Colon cancer organoid [1]; [4]) [%]	Cell Viability (Colon cancer organoid [1]; [5]) [%]	Cell Viability (Colon cancer organoid [1]; [6]) [%]	Cell Viability (Colon cancer organoid [1]; [7]) [%]	Cell Viability (Colon cancer organoid [2]; [4]) [%]	Cell Viability (Colon cancer organoid [2]; [5]) [%]	Cell Viability (Colon cancer organoid [2]; [6]) [%]	Cell Viability (Colon cancer organoid [2]; [7]) [%]	Cell Viability (Colon cancer organoid [3]; [4]) [%]	Cell Viability (Colon cancer organoid [3]; [5]) [%]	Cell Viability (Colon cancer organoid [3]; [6]) [%]	Cell Viability (Colon cancer organoid [3]; [7]) [%]
COc1nc2ccc([C@@](O)(c3ccccc3)C3CCN(C(C)=O)CC3)cc2c(Cl)c1Cc1ccc(-n2cccn2)cc1 [JNJ-54119936]	98.9754	75.6952	103.766	113.997	91.6435	104.692	80.3234	104.355	65.101	118.395	94.7218	120.218
CC(=O)Nc1ncc(CN2CCC[C@H](Cc3cc(C)nc(C)c3)C2)s1 [JNJ-65355394]	144.109	117.923	95.1702	105.247	87.2976	97.4656	96.7484	85.3088	88.5022	103.797	76.2761	119.778
CC(=O)Nc1nc(CN2CCC[C@H](Cc3cc(C)nc(C)c3)C2)cs1 [JNJ-73924149]	110.779	72.9092	164.947	124.842	81.3438	100.385	108.387	92.0646	90.3874	105.251	100.726	118.221
N#CN1CC[C@@H](C(=O)Nc2nc3c(s2)CN(C(=O)CN=[N+]=[N-])CC3)C1 [JYQ88]	72.1963	58.5555	71.7367	79.6546	85.6014	100.681	114.259	88.3695	63.8809	84.2967	72.0417	77.9243
CNC(=N)NCCC[C@H](NC(=O)[C@H](CC(C)C)NC(=O)NNC(=O)[C@H](Cc1ccccc1)NC(=O)[C@H](CO)NC(=O)[C@H](CC(N)=O)NC(=O)[C@@H](Cc1ccncc1)NC(=O)[C@H](N)Cc1ccc(O)cc1)C(=O)N[C@@H](Cc1ccccc1)C(N)=O [KISS1-305] (H-[dY][d4Pal]NSF[azaGly]L[Arg(Me)]F-NH2)	104.031	118.904	114.891	119.718	143.349	104.877	85.2761	111.321	118.72	125.679	103.004	99.3377
CNC(=N)NCCC[C@H](NC(=O)[C@H](CC(C)C)NC(=O)NNC(=O)[C@H](Cc1ccccc1)NC(=O)[C@H](CO)NC(=O)[C@H](CC(N)=O)NC(=O)[C@@H](Cc1cccnc1)NC(=O)[C@H](N)Cc1ccc(O)cc1)C(=O)NCC(N)=O [KISS1-543] (H-[dY][d3Pal]NSF[azaGly]L[Arg(Me)]G-NH2)	103.647	101.302	85.2773	99.9886	118.116	72.7172	93.1075	78.975	101.104	120.489	73.3632	97.5472
C[C@]1(O)C[C@@H](c2nc(-c3ccc4ccc(-c5ccccc5)nc4c3)c3c(N)nccn32)C1 [LINSITINIB]	53.0716	100.619	21.1574	74.7669	41.9562	109.271	38.702	83.4141	60.4709	65.9185	18.406	73.2347
O=C(NOC[C@H](O)CO)c1ccc(F)c(F)c1Nc1ccc(I)cc1F [MIRDAMETINIB]	8.8965	49.9042	7.213	36.7215	4.141	39.571	2.016	25.7095	3.888	83.5811	5.164	45.8585
CCS(=O)(=O)Nc1ccc(Oc2ccc(F)cc2F)c(-c2cn(C)c(=O)c3[nH]ccc23)c1 [MIVEBRESIB]	13.1828	272.686	12.7607	153.585	11.3223	338.596	8.201	180.439	5.728	64.2458	7.404	12.1973
CN([C@@H]1CCc2c(CC(=O)O)c3ccccc3n2C1)S(=O)(=O)c1ccc(F)cc1 [MK-7246]	127.259	149.477	87.9847	110.238	76.0592	112.144	82.2127	107.31	94.6909	109.932	110.185	99.3239
C[C@@H]1CN(c2cc(-c3nn(C)c4ccc(OC5(C)CC5)cc34)ncn2)C[C@H](C)O1 [MLi-2-NC]	21.8005	254.626	83.2909	98.8275	118.993	72.3586	109.582	102.606	112.711	86.6644	122.371	89.7102
CC(=O)c1c(NS(C)(=O)=O)c2cc(-c3ccc(Cl)cc3)c(-c3ccc(Cl)cc3Cl)nc2n(C)c1=O [MRL-CB1-NC]	125.408	125.307	109.863	112.651	103.447	111.697	108.811	108.592	159.821	122.581	102.28	97.0964
Cc1ccc(-c2cnc([C@@]3(O)CC[C@H](C(=O)O)C(C)(C)C3)s2)cc1Nc1cccc(C(F)(F)F)n1 [MRL-SYKi-NC]	103.411	158.333	78.37	87.8946	89.1631	98.4974	85.8631	77.2403	106.503	131.597	144.144	94.9642
COc1cc(C(=O)O)ncc1C#Cc1ccccc1NS(=O)(=O)c1cccc2c(N(C)C)ccnc12 [MSC-0516]	46.2412	64.6541	39.7973	95.1501	94.2911	93.5429	114.942	88.0348	89.6649	109.372	112.972	85.9962
FC(F)(F)c1ccc2c(c1)nc(-c1cccnc1)n2C1CC1 [MSD-CYP11B2-Negative-control]	103.115	83.1787	99.8949	100.759	79.1334	88.6801	68.2082	99.4361	98.8357	114.7	79.6989	74.5522
CC(C)(O)c1cncc(-c2nc3ccc(F)cc3n2C2CC2)c1 [MSD-CYP11B2]	83.611	134.058	92.3684	91.4752	60.604	97.9336	96.2618	98.7246	80.0796	128.543	82.8695	83.5223
N#CC1(c2ccccn2)CCN(Cc2cc(C(=O)N3CCCC3)c(=O)n3ccccc23)CC1 [MSD-M1PAM-NC]	85.4848	72.6928	94.7679	111.31	77.5991	103.607	89.6138	86.9553	102.191	109.338	89.1265	100.403
